Reference: US10287305B2, “Substituted piperidine compound and use thereof” (Takeda Pharmaceutical Company Limited, priority 2016, dated 2019)
Read-outs that look alike come from different tables or passages of the source.

What was measured:
human OX2 receptor = human OX2 receptor (Homo sapiens (Human), UniProt O43614); test: Measurement of orexin type 2 receptor agonist activity (Experimental Example 2-2, FDSS uCELL, calcium indicator); format: cell-based; settings: CHO cells expressing human OX2 receptor; for Emax: DMSO = 0%, reference OX-A at 10 nM; for EC50: Fluo-4 AM
human OX2 receptor, sequence (O43614 whole entry): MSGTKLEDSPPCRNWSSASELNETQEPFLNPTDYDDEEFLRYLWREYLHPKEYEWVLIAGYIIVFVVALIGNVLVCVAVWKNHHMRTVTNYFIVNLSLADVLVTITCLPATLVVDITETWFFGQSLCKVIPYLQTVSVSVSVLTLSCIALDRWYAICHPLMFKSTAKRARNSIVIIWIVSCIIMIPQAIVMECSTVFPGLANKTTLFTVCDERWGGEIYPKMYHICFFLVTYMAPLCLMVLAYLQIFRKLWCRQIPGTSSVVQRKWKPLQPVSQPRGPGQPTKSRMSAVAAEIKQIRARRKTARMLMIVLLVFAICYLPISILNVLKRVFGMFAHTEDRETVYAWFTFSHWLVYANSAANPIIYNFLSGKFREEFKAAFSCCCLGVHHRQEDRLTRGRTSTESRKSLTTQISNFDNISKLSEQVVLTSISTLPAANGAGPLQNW
Protocol: CHO cells forcibly expressing human OX2 receptor were seeded in each well of 384 well black transparent bottom plate (BD Falcon) at 7,500 cells/well, and cultured for one day in a 5% CO2 incubator at 37° C. […] The plate was stood for 30 min in a 5% CO2 incubator at 37° C., and further stood at room temperature for 30 min. A test compound prepared by diluting with assay buffer B (HESS, 20 mM HEPES, 0.1% BSA) was added at 10 μL/well, and the fluorescence value was measured by FDSSμCELL (Hamamatsu Photonics K.K.) every one sec for 1 min, and thereafter every two sec for 1 min sec.

[1] = target: human orexin type 2 receptor (hOX2R) (Homo sapiens (Human), UniProt O43614); test: Measurement of orexin type 2 receptor agonist activity (Experimental Example 2-1, FLIPR TETRA, intracellular Ca2+); format: cell-based; settings: CHO dhfr- cells expressing hOX2R
human orexin type 2 receptor (hOX2R), sequence (O43614 whole entry): as above

[2] = FLIPR TETRA, Fluo-4AM, read-out: Emax (%)

Molecule	EC50 (human OX2 receptor) [µM]	Emax (human OX2 receptor; CHO) [%]	EC50 ([1]; FLIPR TETRA, Fluo-4AM) [µM]	Emax [1, 2] [%]	further results
COC(=O)N1CCC[C@H](NS(C)(=O)=O)[C@@H]1CO[C@H]1CC[C@@H](c2cccc(O)c2)CC1 (relative stereo) [Example 343, methyl cis-2-(((cis-4-(3-hydroxyphenyl)cyclohexyl)oxy)-methyl)-3-((methylsulfonyl)amino)piperidine-1-carboxylate]	0.15				Emax (human OX2 receptor): 109%
COC(=O)N1CCC[C@H](NS(C)(=O)=O)[C@@H]1CO[C@H]1CC[C@@H](c2ccc(OC)cc2)CC1 (relative stereo) [Example 344, methyl cis-2-(((cis-4-(4-methoxyphenyl)cyclohexyl)oxy)-methyl)-3-((methylsulfonyl)amino)piperidine-1-carboxylate]	0.29	109			
COC(=O)N1CCC[C@H](NS(C)(=O)=O)[C@@H]1CO[C@H]1CC[C@@H](c2ccc(O)cc2)CC1 (relative stereo) [Example 345, methyl cis-2-(((cis-4-(4-hydroxyphenyl)cyclohexyl)oxy)-methyl)-3-((methylsulfonyl)amino)piperidine-1-carboxylate]	0.021	105			
COC(=O)N1CCC[C@H](NS(C)(=O)=O)[C@@H]1CO[C@H]1CC[C@@H](c2ccccc2O)CC1 (relative stereo) [Example 347, methyl cis-2-(((cis-4-(2-hydroxyphenyl)cyclohexyl)oxy)-methyl)-3-((methylsulfonyl)amino)piperidine-1-carboxylate]	0.26	94			
O=S(=O)(N[C@H]1CCCN[C@H]1CO[C@H]1CC[C@@H](c2ccccc2)CC1)C1CC1 (relative stereo) [Example 353, N-(cis-2-(((cis-4-phenylcyclohexyl)oxy)methyl)-piperidin-3-yl)cyclopropanesulfonamide]	1.3	100			
CC(=O)N1CCC[C@H](NS(=O)(=O)C2CC2)[C@@H]1CO[C@H]1CC[C@@H](c2ccccc2)CC1 (relative stereo) [Example 354, N-(cis-1-acetyl-2-(((cis-4-phenylcyclohexyl)oxy)methyl)-piperidin-3-yl)cyclopropanesulfonamide]	0.051	104			
CCNC(=O)N1CCC[C@H](NS(=O)(=O)C2CC2)[C@@H]1CO[C@H]1CC[C@@H](c2ccccc2)CC1 (relative stereo) [Example 355, cis-3-((cyclopropylsulfonyl)amino)-N-ethyl-2-(((cis-4-phenylcyclohexyl)oxy)methyl)-piperidine-1-carboxamide]	0.00044	108			
CC(C)OC(=O)N1CCC[C@H](NS(=O)(=O)C2CC2)[C@@H]1COC1CCN(c2ncccn2)CC1 (relative stereo) [Example 356, isopropyl cis-3-((cyclopropylsulfonyl)amino)-2-(((1-(pyrimidin-2-yl)piperidin-4-yl)oxy)methyl)piperidine-1-carboxylate]	0.021	98			
CC(=O)N1CCC[C@H](NS(=O)(=O)C2CC2)[C@@H]1CO[C@H]1CC[C@@H](C(C)C)CC1 (relative stereo) [Example 357, N-(cis-1-acetyl-2-(((cis-4-isopropylcyclohexyl)oxy)methyl)-piperidin-3-yl)cyclopropanesulfonamide]	0.084	101			
CNC(=O)N1CCC[C@H](NS(=O)(=O)C2CC2)[C@@H]1CO[C@H]1CC[C@@H](c2ccccc2)CC1 (relative stereo) [Example 359, cis-3-((cyclopropylsulfonyl)amino)-N-methyl-2-(((cis-4-phenylcyclohexyl)oxy)methyl)-piperidine-1-carboxamide]	0.0011	97			
O=C(OCC(F)(F)F)N1CCC[C@H](NS(=O)(=O)C2CC2)[C@@H]1COC1CCN(c2ncccn2)CC1 (relative stereo) [Example 360, 2,2,2-trifluoroethyl cis-3-((cyclopropylsulfonyl)amino)-2-(((1-(pyrimidin-2-yl)piperidin-4-yl)oxy)methyl)piperidine-1-carboxylate]	0.21	98			
CS(=O)(=O)N[C@H]1CCCN(C(=O)CO)[C@H]1CO[C@H]1CC[C@@H](c2ccccc2C(F)(F)F)CC1 [Example 283, N-((2R,3S)-1-glycoloyl-2-(((cis-4-(2-(trifluoromethyl)phenyl)cyclohexyl)oxy)methyl)piperidin-3-yl)methanesulfonamide]			0.0089	95	
COc1ccccc1[C@H]1CC[C@@H](OC[C@H]2[C@@H](NS(C)(=O)=O)CCCN2C(C)=O)CC1 [Example 291, N-((2R,3S)-1-acetyl-2-(((cis-4-(2-methoxyphenyl)cyclohexyl)oxy)methyl)piperidin-3-yl)methanesulfonamide]			0.026	98	
CCOC(=O)N1CCC[C@H](NS(C)(=O)=O)[C@@H]1CO[C@H]1CC[C@@H](c2ccccc2)CC1 [Example 303, ethyl (2R,3S)-3-((methylsulfonyl)amino)-2-(((cis-4-phenylcyclohexyl)oxy)methyl)-piperidine-1-carboxylate]			0.015	102	
COc1cccc([C@H]2CC[C@@H](OC[C@H]3[C@@H](NS(C)(=O)=O)CCCN3C(=O)C3CC3)CC2)c1 [Example 304, N-((2R,3S)-1-(cyclopropylcarbonyl)-2-(((cis-4-(3-methoxyphenyl)cyclohexyl)oxy)-methyl)piperidin-3-yl)methanesulfonamide]			0.023	105	
CS(=O)(=O)N[C@H]1CCCN(C(=O)OCC(F)(F)F)[C@H]1COC1CCN(c2ncccn2)CC1 [Example 305, 2,2,2-trifluoroethyl (2R,3S)-3-((methylsulfonyl)amino)-2-(((1-(pyrimidin-2-yl)piperidin-4-yl)oxy)methyl)piperidine-1-carboxylate]			0.053		Emax (%) ([1]; FLIPR TETRA, Fluo-4AM): 106%
CS(=O)(=O)N[C@H]1CCCN(C(=O)CC(F)(F)F)[C@H]1CO[C@H]1CC[C@@H](c2ccccc2)CC1 [Example 306, N-((2R,3S)-2-(((cis-4-phenylcyclohexyl)oxy)methyl)-1-(3,3,3-trifluoropropanoyl)piperidin-3-yl)methanesulfonamide]			0.013	101	
COC(=O)N1CCC[C@H](NS(=O)(=O)N(C)C)[C@@H]1CO[C@H]1CC[C@@H](c2ccccc2)CC1 [Example 309, methyl (2R,3S)-3-((dimethylsulfamoyl)amino)-2-(((cis-4-phenylcyclohexyl)oxy)methyl)-piperidine-1-carboxylate]			0.0031	106	
CN(C)S(=O)(=O)N[C@H]1CCCN(C(=O)C2CC2)[C@H]1CO[C@H]1CC[C@@H](c2ccccc2)CC1 [Example 310, N′-((2R,3S)-1-(cyclopropylcarbonyl)-2-(((cis-4-phenylcyclohexyl)oxy)methyl)-piperidin-3-yl)-N,N-dimethylsulfuric diamide]			0.0022	101	
CCc1ccccc1[C@H]1CC[C@@H](OC[C@H]2[C@@H](NS(C)(=O)=O)CCCN2C(C)=O)CC1 [Example 312, N-((2R,3S)-1-acetyl-2-(((cis-4-(2-ethylphenyl)cyclohexyl)oxy)methyl)-piperidin-3-yl)methanesulfonamide]			0.032	98	
Cc1ccccc1[C@H]1CC[C@@H](OC[C@@H]2NCCC[C@@H]2NS(C)(=O)=O)CC1 [Example 318, N-((2R,3S)-2-(((cis-4-(2-methylphenyl)cyclohexyl)oxy)-methyl)piperidin-3-yl)methanesulfonamide]			1.1	99	
CC(=O)N1CCC[C@H](NS(C)(=O)=O)[C@@H]1CO[C@H]1CC[C@@H](c2ccccc2C)CC1 [Example 319, N-((2R,3S)-1-acetyl-2-(((cis-4-(2-methylphenyl)cyclohexyl)oxy)-methyl)piperidin-3-yl)methanesulfonamide]			0.029	106	
CS(=O)(=O)N[C@H]1CCCN[C@H]1CO[C@H]1CC[C@@H](c2ccccc2C(F)F)CC1 [Example 320, N-((2R,3S)-2-(((cis-4-(2-(difluoromethyl)phenyl)cyclohexyl)-oxy)methyl)piperidin-3-yl)methanesulfonamide]			2	74	
CC(=O)N1CCC[C@H](NS(C)(=O)=O)[C@@H]1CO[C@H]1CC[C@@H](c2ccccc2C(F)F)CC1 [Example 323, N-((2R,3S)-1-acetyl-2-(((cis-4-(2-(difluoromethyl)phenyl)cyclohexyl)-oxy)methyl)piperidin-3-yl)methanesulfonamide]			0.096	95	
COC(=O)N1CCC[C@H](NS(C)(=O)=O)[C@@H]1CO[C@H]1CC[C@@H](c2ccccc2C(F)F)CC1 [Example 324, methyl (2R,3S)-2-(((cis-4-(2-(difluoromethyl)phenyl)cyclohexyl)-oxy)methyl)-3-((methylsulfonyl)amino)piperidine-1-carboxylate]					Emax (%) ([1]; FLIPR TETRA, Fluo-4AM): 95%
COC(=O)N1CCC[C@H](NS(C)(=O)=O)[C@@H]1CO[C@H]1CC[C@@](O)(c2ccccc2)CC1 [Example 331, methyl cis-2-(((trans-4-hydroxy-4-phenylcyclohexyl)oxy)methyl)-3-((methylsulfonyl)amino)piperidine-1-carboxylate]				98	
N-(2-(((cis-4-(3-fluorophenyl)cyclohexyl)oxy)methyl)pyridin-3-yl)methanesulfonamide [Example 15]					EC50 ([1]; agonist activity, 10 nM human orexin B = 100%): 0.28 µM; Emax ([1]; value at 30 uM concentration, orexin B as full agonist = 100%): 105%
